Source: US4279915A, “Method of treatment using new leurosine derivatives” (priority 1973, dated 1981)

Assays:
[1] = test system: lymphoma, leukemia and Hodgkins disease; assay: antitumor activity; assay type: in vivo
[2] = test system: L 1210 leukemia; assay: effect on L 1210 i.p. leukemia; assay type: in vivo, BDF1 mice
Text: The treatment extends the life span of animals suffering from L-1210 lymphoid leukemia, s37 ascites sarcoma or Yoshida ascites sarcoma by about 150 to 250 percent.
L 1210 I.P. LEUKEMIA ON BDF1 MICE

[3] = test system: Ehrlich ascites carcinoma; assay: antitumor effect on Ehrlich ascites carcinoma; assay type: in vivo, mice
Text: (§1) This compound provides complete recovery or a 300 percent extension of life span in 50 to 70 percent of the cases, in tests on mice inoculated with Ehrlich ascites carcinoma or NK/Ly lymphoma.
(§2) EFFECT OF F-LEUROSINE ON ASCITIC TUMORS

[4] = test system: NK/Ly lymphoma; assay: antitumor effect on NK/Ly lymphoma; assay type: in vivo, mice
Text: as §1, §2

[5] = test system: Novikoff; assay: antitumor effect on Novikoff ascitic tumor; assay type: in vivo
Text: |EFFECT OF F-LEUROSINE ON ASCITIC TUMORS

[6] = test system: Harding Passey melanoma; assay: growth inhibition of Harding Passey melanoma; assay type: in vivo
[7] = test system: lymphomas; assay: effect of F-leurosine on lymphomas in patients (Table II); assay type: in vivo, human
Text: Both of Hodgkin patients belonged to the poor risk category.
EFFECT OF F-LEUROSINE ON LYMPHOMAS

[8] = test system: granulocytes, lymphocytes, platelets; assay: haematological parameters; assay type: in vivo
[9] = tolerability and therapeutical range in animal tests; assay type: in vivo
Experimental: A dose of 0.3 to 5.0 mg./kg. of body weight can also be used in human therapy, although the dosage can be as low as 0.01 mg./kg. daily.

[10] = test system: rhabdomyo-sarcoma; assay: growth inhibition of induced and transplanted rhabdomyo-sarcoma; assay type: in vivo
[11] = test system: leukaemias; assay: effect of F-leurosine on leukaemias in patients (Table I); assay type: in vivo, human; details: for haematological effect: schedule C
[12] = test system: solid tumors; assay: clinical treatment of patients with solid tumors (Example B); assay type: in vivo, human; details: for decrease of prothrombin index and activity: by the 7th day of treatment
Experimental: N-formyl-leurosine was administered in form of i.v. injection as single treatment or in 5 and 2×5 day long periods continually to exclusively patients with solid tumors.
Simultaneously adjuvant therapy was applied (analgesics, antibiotics, cardiac drugs, roborants) if necessary.
Following single treatments primarily the effect on blood picture, and especially on leukocyte count was observed. In case of higher total doses given continuously for 5 or 10 days, liver function, enzymes, serum creatinine, uric acid level were also determined. The neurological condition of the patients was also controlled.

[13] = test system: leukemias and haemoblastoses; assay: therapeutic results in leukemias and haemoblastoses (Table VII); assay type: in vivo, human
Experimental: In addition, eight patients were added to the group treated on the basis of this schedule. Therapeutic results obtained by F-Leurosine in leukemias and haemoblastoses are listed in Table VII. |Therapeutic Results Obtained by F-Leurosine Treatment

[14] = 8 × 2.5 mg/kg i.p. 48 hr interval
[15] = 8 × 2.5 mg/kg i.p. 72 hr interval
[16] = 8 × 5.0 mg/kg i.p. 48 hr interval
[17] = 8 × 5.0 mg/kg i.p. 72 hr interval
[18] = 8 × 5.0 mg/kg i.p. 96 hr interval
[19] = 8 × 7.5 mg/kg i.p. 72 hr interval
[20] = 8 × 7.5 mg/kg i.p. 96 hr interval
[21] = 8 × 10.0 mg/kg i.p. 48 hr interval
[22] = 8 × 10.0 mg/kg i.p. 72 hr interval
[23] = 8 × 10.0 mg/kg i.p. 96 hr interval
[24] = 4 × 0.6 mg/kg i.p. each other day
[25] = 4 × 3.0 mg/kg i.p. each other day

Compound: CCC12CN3CCc4c([nH]c5ccccc45)[C@@](C(=O)OC)(c4cc5c(cc4OC)N(C=O)[C@H]4[C@@](O)(C(=O)OC)[C@H](OC(C)=O)[C@]6(CC)C=CCN7CC[C@]54[C@@H]76)C[C@@H](C3)C1O2 (stereo partly drawn) [N-formyl-leurosine]
- antitumor activity [1]: favorable antitumor activity
- Mean survival ([2]; 8 × 1.25 mg/kg i.p. daily): 27.7 days
- Survival ([2]; 8 × 1.25 mg/kg i.p. daily): 131
- Mean survival [2, 14]: 22.4 days
- Survival [2, 14]: 137
- Mean survival [2, 15]: 12.0 days
- Survival [2, 15]: 48
- Mean survival ([2]; 8 × 2.5 mg/kg i.p. daily): 25.0 days
- Survival ([2]; 8 × 2.5 mg/kg i.p. daily): 127
- Mean survival [2, 16]: 24.0 days
- Survival [2, 16]: 126
- Mean survival [2, 17]: 22.1 days
- Survival [2, 17]: 123
- Mean survival [2, 18]: 10.8 days
- Survival [2, 18]: 35
- Mean survival ([2]; 8 × 5.0 mg/kg i.p. daily): 23.0 days
- Survival ([2]; 8 × 5.0 mg/kg i.p. daily): 109
- Mean survival [2, 19]: 20.2 days
- Survival [2, 19]: 117
- Mean survival [2, 20]: 19.2 days
- Survival [2, 20]: 95
- Mean survival ([2]; 8 × 7.5 mg/kg i.p. daily): 19.5 days
- toxicity mark in Survival column ([2]; 8 × 7.5 mg/kg i.p. daily): tox
- Survival ([2]; 8 × 7.5 mg/kg i.p. daily, tox): 56
- Mean survival [2, 21]: 21.7 days
- toxicity mark in Survival column [2, 21]: tox
- Survival ([2]; 8 × 10.0 mg/kg i.p. 48 hr interval, tox): 60
- Mean survival [2, 22]: 22.3 days
- Survival [2, 22]: 145
- Mean survival [2, 23]: 23.6 days
- Survival [2, 23]: 136
- potency of small daily doses vs high doses twice weekly ([2]; BDF1 mice): equally potent
- sensitivity of L-1210 leukemia to the treatment ([2]; BDF1 mice): sensitive to the treatment
- extension of life span ([2]; L-1210 lymphoid leukemia, about): 150-250%
- extension of life span [3]: 300%
- Survival [3, 24]: 288
- Tumor free [3, 24]: 7/10
- Survival ([3]; 7 × 3.0 mg/kg i.p. daily): 244
- Tumor free ([3]; 7 × 3.0 mg/kg i.p. daily): 3/10
- Survival ([3]; 24 × 0.15 mg/kg i.p. daily): 118
- Tumor free ([3]; 24 × 0.15 mg/kg i.p. daily): 3/10
- extension of life span [4]: 300%
- Survival ([4]; 8 × 0.5 mg/kg i.p. daily): 250
- Tumor free ([4]; 8 × 0.5 mg/kg i.p. daily): 2/10
- Survival [5, 25]: 196
- Tumor free [5, 25]: 1/6
- Survival ([5]; 6 × 2.0 mg/kg i.p. daily): 166
- Tumor free ([5]; 6 × 2.0 mg/kg i.p. daily): 0/6
- growth inhibition [6]: remarkable growth inhibition
- X-ray picture of the chest, atelectasia in lower region of right lung ([7]; Hodgkin patient four, before vs after treatment): undoubted improvement
- response ([7]; lymphosarcoma patient eight, poor risk): non-responding
- palpable lymph nodes ([7]; lymphosarcoma patient five, after second course): all but one of the palpable lymph nodes disappeared
- Westergren value after treatment ([7]; lymphosarcoma patient five, 75 mm/hour before the treatment): 12 mm/h
- remission ([7]; lymphosarcoma patient three): moderate remission
- change in mediastinal pathologic lymph nodes' size and intensity ([7]; lymphosarcoma patient two): not spectacular, but definite
- palpable lymph nodes ([7]; lymphosarcoma patient two): The majority of their palpable lymph nodes disappeared
- effect ([7]; patient five, course I, Lysc., schedule A): IR>50%
- effect ([7]; patient five, course II, Lysc., schedule B): IR<50%
- effect ([7]; patient nine, Hodgkin SC., schedule C): IR<50%
- effect ([7]; patient one, Rsc., schedule C): IR<50%
- effect ([7]; patient three, Lysc., schedule A): IR<50%
- effect ([7]; patient two, Lysc., schedule C): IR>50%
- sensitivity to treatment ([7]; poor risk Hodgkin patient four): proved to be sensitive
- improvement after therapy ([7]; two reticulosarcoma patients, some lymph nodes diminished, softer, more mobile): one showed a moderate improvement after therapy
- lowering of number of granulocytes ([8]; 0.6 mg/kg): 50%
- number of lymphocytes ([8]; 15 mg/kg): decreased only after administration of 15 mg/kg
- platelet count ([8]; similar dose level): No significant changes
- side-effects ([9]; 0.3 to 5.0 mg./kg. for prolonged periods, animals): without causing side-effects characteristic of and unavoidable with the known vinca-alkaloids
- therapeutical range compared with vincristine ([9]; animal tests): somewhat similar to that of vincristine
- therapeutical range compared with vinleurosine ([9]; animal tests): about four times broader than that of vinleurosine
- growth inhibition [10]: remarkable growth inhibition
- clinical improvement parallel with the haematological one ([11]; ALL and AML patients): observed only in the case of the ALL patient
- duration of complete haematological remission ([11]; ALL patient): 2 months
- outcome after treatment ([11]; AML patient): died one month after the end of the treatment
- time to relapse after finishing treatment ([11]; AML patient, relapse untreatable because of serious thrombopenia and bleeding): 14 days
- splenomegaly ([11]; CLL, first case): splenomegaly diminished
- enlargement of pathological lymph nodes ([11]; CLL, second case (T. B.)): became less pronounced
- lymph nodes and spleen volume ([11]; CLL, third case): both the lymph nodes and the spleen increased in volume
- clinical improvement ([11]; chronic lymphocytic leukaemia): some clinical improvement was achieved in all the 3 CLL patients
- haematological remission ([11]; chronic lymphocytic leukaemia): no haematological remission could be induced
- complete haematological remission ([11]; four cases of acute leukaemia, one ALL, one AML): Complete haematological remission was achieved in two cases
- haematological effect ([11]; patient seven, AMoL): IR>50%
- haematological effect ([11]; patient six, AUL): IR>50%
- tumor growth: progress during the treatment ([12]; 0.018 mg/kg during 2×5 days, one case): express progress during the treatment
- tumor growth: regression by X-ray and touching ([12]; 0.030 mg/kg during 2×5 days, one case): slight regression
- leukocyte count change ([12]; between the 3rd and 5th days): decreased again
- leukocyte count level ([12]; between the 3rd and 5th days, remained over): over 3000
- leukocyte count ([12]; between the 9th and 14th days): returns to the initial value
- tumor growth: other cases ([12]; continuous administration): No changes were found in other cases
- effect on tumor growth ([12]; continuous administration of 0.018-0.035 mg/kg doses): some effect was observed
- qualitative blood picture ([12]; dose level presently used): no change was shown
- levels of enzymes (serum alk, phosphatase, SGOT, SGPT) ([12]; during the treatment): did not essentially change
- leukocyte count ([12]; first 48 hours): increased
- liver function, urinalysis, serum creatinine and uric acid levels ([12]; human, in vivo): no changes or signs indicating toxicity were found
- neurological side-effects ([12]; human, in vivo): not observed
- decrease of prothrombin index and activity ([12]; one case): 50%
- prothrombin-time, increase ([12]; six cases): increased in three cases out of six
- prothrombin time, decrease ([12]; two cases): very slightly decreased
- decrease of prothrombin index and activity ([12]; two cases): 37%
- Complete remission ([13]; ALL, 1 patient): 1 patients
- Complete remission ([13]; AML, 1 patient): 1 patients
- Partial remission ([13]; AMoL, 1 patient): 1 patients
- Partial remission ([13]; AUL, 1 patient): 1 patients
- Partial remission ([13]; CLL, 3 patients): 3 patients
- No response ([13]; Hodgkin's disease, 2 patients): 2 patients
- No response ([13]; LSC, 5 patients): 1 patients
- Partial remission ([13]; LSC, 5 patients): 4 patients
- No response ([13]; Multiple myelomo, 6 patients): 2 patients
- Partial remission ([13]; Multiple myelomo, 6 patients): 4 patients
- No response ([13]; RSC, 2 patients): 1 patients
- Partial remission ([13]; RSC, 2 patients): 1 patients
- Complete remission ([13]; Total, 22 patients): 2 patients
- No response ([13]; Total, 22 patients): 6 patients
- Partial remission ([13]; Total, 22 patients): 14 patients
